Results reported in patent publication US5441983A, “Treatment of infection by enveloped virus with calix(N)arene compounds” (Genelabs Incorporated, priority 1992, dated 1995).

Legend:
[1] = test system: HSV-1; assay: Inactivation of purified HSV-1 by compound, plaque number after serial dilution; conditions: 10 μg/ml, duplicate
Protocol: In a third study, purified HSV-1 virus suspensions were incubated with KY-1 or the sodium salt thereof, or a control solution for 1 hour, then serially diluted to drug concentrations between 10^1 to 10^-4 μg/ml as described in Example 16. The "X" symbol in the table indicates plaques too numerous to count.
Purified HSV-1 was suspended in RPMI-1640 medium (Gibco Laboratories) containing 2% FCS, penicillin and streptomycin. […] The suspensions were incubated for 1 hour at 37° C., then diluted serially at 10 fold dilutions to final drug concentrations of 10, 10^0, 10^-1, 10^-2, 10^-3 and 10^-4 μg/ml drug concentrations The serially diluted particles were then added to Vero cells for two hours, as in Example 6, and the cells examined for plaques 48 hours later.

[2] = test system: HIV-HXB; assay: Inhibition of syncytia formation, HIV-HXB (HTLV-IIIB); conditions: for EC100: Human immunodeficiency virus 1, 18 h, read-out: HIV-HXB ED100, complete inhibition of syncytia formation
Protocol: (§1) Briefly, cells chronically infected with HTLV-IIIB or RF-II HIV strains were incubated in the presence of serial dilutions of the selected KY compound, then further cocultured with indicator cells. The extent of syncytia formation was scored under phase microscopy.
(§2) Representative calix(n)arene compounds from Table 2 were tested for inhibition of cytopathic effects in cells infected with one of two HTLV-III strains, HTLV-IIIB and RF-II strains, as described in Example 12, and in the subsection above.
(§3) Human CD4^+ indicator cells (VB) and chronically infected H9 cells were maintained in RPMI-1640 medium supplemented with 5% fetal calf serum, 100 Units of penicillin per ml and 100 μg of streptomycin per ml at 37° C. in a humidified incubator containing 7% CO2.
(§4) For the fusion assay, serial dilutions between 1:2 and 1:2^8 of a selected KY compound, 1 mg/ml in PBS were made in a 96 well round bottom plate. The diluted KY compound was transferred to a 96 well flat-bottom plate. To each well was added 25 μg chronically infected H9 cells (at 2×10^6, cells/ml), or cells chronically infected with RF-II strain HIV, followed by incubation at 37° C. for 45 minutes. To each well was then added 25 μl VB cells (about 5×10^4 cells), and the cells and virus isolates were cocultured for 18 hours in a humid 5% CO2 atmosphere.

[3] = test system: HIV-RF-II; assay: Inhibition of syncytia formation, HIV-RF-II; conditions: for EC100: Human immunodeficiency virus 1, 18 h, read-out: HIV-RF-II ED100, complete inhibition of syncytia formation
Protocol: as §1, §2, §3, §4

[4] = complete inhibition of syncytia formation

| SMILES | EC100 [2] [µg/mL] | EC100 [3] [µg/mL] | further results |
| --- | --- | --- | --- |
| O=S(=O)(O)c1cc2cc(S(=O)(=O)O)c3c(O)c2c(O)c1Cc1c(S(=O)(=O)O)cc2cc(S(=O)(=O)O)c(c(O)c2c1O)Cc1c(S(=O)(=O)O)cc2cc(S(=O)(=O)O)c(c(O)c2c1O)Cc1c(S(=O)(=O)O)cc2cc(S(=O)(=O)O)c(c(O)c2c1O)C3 [KY 217] |  |  | Plaque number, dilution 1 ([1]; 0.3 pfu/cell): 2,8; Plaque number, dilution 10^1 ([1]; 0.3 pfu/cell): 3,3; Plaque number, dilution 1 ([1]; 3 pfu/cell): X,X; Plaque number, dilution 10^1 ([1]; 3 pfu/cell): X,X; Plaque number, dilution 10^2 ([1]; 3 pfu/cell): 6,0; Plaque number, dilution 10^3 ([1]; 3 pfu/cell): 5,0 |
| O=S(=O)(O)c1c2c(O)c3c(O)c(c(S(=O)(=O)O)c(O)c3c1O)C(c1ccccc1)c1c(S(=O)(=O)O)c(O)c3c(O)c(S(=O)(=O)O)c(c(O)c3c1O)C(c1ccccc1)c1c(S(=O)(=O)O)c(O)c3c(O)c(S(=O)(=O)O)c(c(O)c3c1O)C(c1ccccc1)c1c(S(=O)(=O)O)c(O)c3c(O)c(S(=O)(=O)O)c(c(O)c3c1O)C2c1ccccc1 (centres unmarked) [KY-85] | 32 |  |  |
| O=S(=O)(Nc1ccccc1)c1cc2cc(S(=O)(=O)Nc3ccccc3)c3c(O)c2c(O)c1Cc1c(S(=O)(=O)Nc2ccccc2)cc2cc(S(=O)(=O)Nc4ccccc4)c(c(O)c2c1O)Cc1c(S(=O)(=O)Nc2ccccc2)cc2cc(S(=O)(=O)Nc4ccccc4)c(c(O)c2c1O)Cc1c(S(=O)(=O)Nc2ccccc2)cc2cc(S(=O)(=O)Nc4ccccc4)c(c(O)c2c1O)C3 [KY-176] | 125 | 250 |  |
| O=S(=O)(O)c1c2c(O)c3c(O)c(c(S(=O)(=O)O)c(Br)c3c1Br)C(C(Br)CBr)c1c(S(=O)(=O)O)c(Br)c3c(Br)c(S(=O)(=O)O)c(c(O)c3c1O)C(C(Br)CBr)c1c(S(=O)(=O)O)c(Br)c3c(Br)c(S(=O)(=O)O)c(c(O)c3c1O)C(C(Br)CBr)c1c(S(=O)(=O)O)c(Br)c3c(Br)c(S(=O)(=O)O)c(c(O)c3c1O)C2C(Br)CBr (centres unmarked) [KY-193] | 63 | 500 |  |
| CC(=O)Oc1c2c(S(=O)(=O)O)cc3cc(S(=O)(=O)O)c(c(OC(C)=O)c13)Cc1c(S(=O)(=O)O)cc3cc(S(=O)(=O)O)c(c(OC(C)=O)c3c1OC(C)=O)Cc1c(S(=O)(=O)O)cc3cc(S(=O)(=O)O)c(c(OC(C)=O)c3c1OC(C)=O)Cc1c(S(=O)(=O)O)cc3cc(S(=O)(=O)O)c(c(OC(C)=O)c3c1OC(C)=O)C2 [KY-270] | 16 | 32 |  |
| CC(=O)Oc1c2c(S(=O)(=O)O)cc3cc(S(=O)(=O)O)c(c(OC(C)=O)c13)C(C(=O)O)c1c(S(=O)(=O)O)cc3cc(S(=O)(=O)O)c(c(OC(C)=O)c3c1OC(C)=O)C(C(=O)O)c1c(S(=O)(=O)O)cc3cc(S(=O)(=O)O)c(c(OC(C)=O)c3c1OC(C)=O)C(C(=O)O)c1c(S(=O)(=O)O)cc3cc(S(=O)(=O)O)c(c(OC(C)=O)c3c1OC(C)=O)C2C(=O)O (centres unmarked) [KY-272] | 63 | 250 |  |
| CCC(=O)Oc1c2c(S(=O)(=O)O)cc3cc(S(=O)(=O)O)c(c(OC(=O)CC)c13)Cc1c(S(=O)(=O)O)cc3cc(S(=O)(=O)O)c(c(OC(=O)CC)c3c1OC(=O)CC)Cc1c(S(=O)(=O)O)cc3cc(S(=O)(=O)O)c(c(OC(=O)CC)c3c1OC(=O)CC)Cc1c(S(=O)(=O)O)cc3cc(S(=O)(=O)O)c(c(OC(=O)CC)c3c1OC(=O)CC)C2 [KY-276] | 16 | 32 |  |
| CCCC(=O)Oc1c2c(S(=O)(=O)O)cc3cc(S(=O)(=O)O)c(c(OC(=O)CCC)c13)Cc1c(S(=O)(=O)O)cc3cc(S(=O)(=O)O)c(c(OC(=O)CCC)c3c1OC(=O)CCC)Cc1c(S(=O)(=O)O)cc3cc(S(=O)(=O)O)c(c(OC(=O)CCC)c3c1OC(=O)CCC)Cc1c(S(=O)(=O)O)cc3cc(S(=O)(=O)O)c(c(OC(=O)CCC)c3c1OC(=O)CCC)C2 [KY-281] | 16 | 32 |  |
| COc1c2c(S(=O)(=O)O)cc3cc(S(=O)(=O)O)c(c(OC)c13)C(C(=O)O)c1c(S(=O)(=O)O)cc3cc(S(=O)(=O)O)c(c(OC)c3c1OC)C(C(=O)O)c1c(S(=O)(=O)O)cc3cc(S(=O)(=O)O)c(c(OC)c3c1OC)C(C(=O)O)c1c(S(=O)(=O)O)cc3cc(S(=O)(=O)O)c(c(OC)c3c1OC)C2C(=O)O (centres unmarked) [KY-284] | 16 | 32 |  |
| CCCC(=O)Oc1c2c(S(=O)(=O)O)cc3cc(S(=O)(=O)O)c(c(OC(=O)CCC)c13)Cc1c(S(=O)(=O)O)cc3cc(S(=O)(=O)O)c(c(OC(=O)CCC)c3c1OC(=O)CCC)Cc1c(S(=O)(=O)O)cc3cc(S(=O)(=O)O)c(c(OC(=O)CCC)c3c1OC(=O)CCC)Cc1c(S(=O)(=O)O)cc3cc(S(=O)(=O)O)c(c(OC(=O)CCC)c3c1OC(=O)CCC)C2 [KY-288] |  |  | HIV-HXB ED100 [2, 4]: 8; HIV-RF-II ED100 [3, 4]: 16 |
| CCCCC(=O)Oc1c2c(S(=O)(=O)O)cc3cc(S(=O)(=O)O)c(c(OC(=O)CCCC)c13)Cc1c(S(=O)(=O)O)cc3cc(S(=O)(=O)O)c(c(OC(=O)CCCC)c3c1OC(=O)CCCC)Cc1c(S(=O)(=O)O)cc3cc(S(=O)(=O)O)c(c(OC(=O)CCCC)c3c1OC(=O)CCCC)Cc1c(S(=O)(=O)O)cc3cc(S(=O)(=O)O)c(c(OC(=O)CCCC)c3c1OC(=O)CCCC)C2 [KY-289] | 16 | 32 |  |
| CCCCCC(=O)Oc1c2c(S(=O)(=O)O)cc3cc(S(=O)(=O)O)c(c(OC(=O)CCCCC)c13)Cc1c(S(=O)(=O)O)cc3cc(S(=O)(=O)O)c(c(OC(=O)CCCCC)c3c1OC(=O)CCCCC)Cc1c(S(=O)(=O)O)cc3cc(S(=O)(=O)O)c(c(OC(=O)CCCCC)c3c1OC(=O)CCCCC)Cc1c(S(=O)(=O)O)cc3cc(S(=O)(=O)O)c(c(OC(=O)CCCCC)c3c1OC(=O)CCCCC)C2 [KY-291] | 16 | 32 |  |
| CC=CC(=O)Oc1c2c(S(=O)(=O)O)cc3cc(S(=O)(=O)O)c(c(OC(=O)C=CC)c13)Cc1c(S(=O)(=O)O)cc3cc(S(=O)(=O)O)c(c(OC(=O)C=CC)c3c1OC(=O)C=CC)Cc1c(S(=O)(=O)O)cc3cc(S(=O)(=O)O)c(c(OC(=O)C=CC)c3c1OC(=O)C=CC)Cc1c(S(=O)(=O)O)cc3cc(S(=O)(=O)O)c(c(OC(=O)C=CC)c3c1OC(=O)C=CC)C2 [KY-293] | 16 | 63 |  |
| O=C(O)CCCCCCC(=O)Oc1c2c(S(=O)(=O)O)cc3cc(S(=O)(=O)O)c(c(OC(=O)CCCCCCC(=O)O)c13)Cc1c(S(=O)(=O)O)cc3cc(S(=O)(=O)O)c(c(OC(=O)CCCCCCC(=O)O)c3c1OC(=O)CCCCCCC(=O)O)Cc1c(S(=O)(=O)O)cc3cc(S(=O)(=O)O)c(c(OC(=O)CCCCCCC(=O)O)c3c1OC(=O)CCCCCCC(=O)O)Cc1c(S(=O)(=O)O)cc3cc(S(=O)(=O)O)c(c(OC(=O)CCCCCCC(=O)O)c3c1OC(=O)CCCCCCC(=O)O)C2 [KY-294] | 16 | 16 |  |
| O=C(O)CCCCCOc1c2c(S(=O)(=O)O)cc3cc(S(=O)(=O)O)c(c(OCCCCCC(=O)O)c13)Cc1c(S(=O)(=O)O)cc3cc(S(=O)(=O)O)c(c(OCCCCCC(=O)O)c3c1OCCCCCC(=O)O)Cc1c(S(=O)(=O)O)cc3cc(S(=O)(=O)O)c(c(OCCCCCC(=O)O)c3c1OCCCCCC(=O)O)Cc1c(S(=O)(=O)O)cc3cc(S(=O)(=O)O)c(c(OCCCCCC(=O)O)c3c1OCCCCCC(=O)O)C2 [KY-307] | 8 | 32 |  |
| O=C(O)CNS(=O)(=O)c1cc2cc(S(=O)(=O)NCC(=O)O)c3c(O)c2c(O)c1Cc1c(S(=O)(=O)NCC(=O)O)cc2cc(S(=O)(=O)NCC(=O)O)c(c(O)c2c1O)Cc1c(S(=O)(=O)NCC(=O)O)cc2cc(S(=O)(=O)NCC(=O)O)c(c(O)c2c1O)Cc1c(S(=O)(=O)NCC(=O)O)cc2cc(S(=O)(=O)NCC(=O)O)c(c(O)c2c1O)C3 [KY-357] | 32 | 63 |  |
